Assay results taken from the supplement of paper PMC4121296.

Key:
Conditions in all cases: exposure: 5-72 hpf
[1] = system: Danio rerio embryo (fli1:egfp); test: heart rate at 72 hpf (beats per minute); higher = faster heart rate
Procedure: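 fli1:egfp zebrafish embryos exposed 5-72 hpf to chemical (0.05-50 µM, 0.1% DMSO) in 384-well plates; heart rate at 72 hpf quantified from stream acquisitions by semi-automated MetaXpress journal (peak counting); only embryos in concentrations passing survival/body-length criteria analyzed.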

[2] = system: Danio rerio embryo (fli1:egfp); test: body length at 72 hpf (µm); higher = longer body (less growth inhibition)
Procedure: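 Transgenic fli1:egfp zebrafish embryos (one per well, 384-well plate) exposed statically from 5 to 72 hpf at 28 °C to chemical (0.05-50 µM, 0.1% DMSO); at 72 hpf anesthetized and imaged on ImageXpress; body length of live, hatched, correctly oriented embryos measured by automated MetaXpress journal. Dead/unhatched/misoriented embryos have no value.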

[3] = system: Danio rerio embryo (fli1:egfp); test: arterial (dorsal aorta) circulation score at 72 hpf (normalized DA-Max (arbitrary units)); higher = more circulation
Procedure: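 fli1:egfp zebrafish embryos exposed 5-72 hpf to chemical (0.05-50 µM, 0.1% DMSO); arterial circulation at 72 hpf quantified from stream acquisitions of the dorsal aorta by FFT-based analysis (DA-Max, normalized dorsal aorta signal); only concentrations passing survival/body-length criteria analyzed.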

[4] = system: Danio rerio embryo (fli1:egfp); test: intersegmental vessel area normalized to body length at 72 hpf (ISV area / body length (normalized units)); higher = more vessel area
Procedure: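 fli1:egfp zebrafish embryos exposed 5-72 hpf to chemical (0.05-50 µM, 0.1% DMSO); intersegmental vessel (ISV) eGFP area quantified by MetaXpress journal at 72 hpf and normalized to body length.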

[5] = system: Danio rerio embryo (fli1:egfp); test: pericardial area at 72 hpf (image area units (not stated)); higher = larger pericardial area (edema)
Procedure: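 fli1:egfp zebrafish embryos exposed 5-72 hpf to chemical (0.05-50 µM, 0.1% DMSO); pericardial area at 72 hpf measured by semi-automated MetaXpress journal (increase indicates edema).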

CCN(Cc1c(F)cccc1Cl)c1c([N+](=O)[O-])cc(C(F)(F)F)cc1[N+](=O)[O-] [Flumetralin]
Conditions	arterial, [3]	body length at 72 hpf, [2]	heart rate at 72 hpf, [1]	intersegmental vessel area normalized, [4]
0.05 µM	16.7	3020	183	67.3
0.098 µM	16.1	3080	174	74.9
0.195 µM	16.8	3050	177	79.1
0.39 µM	15	3010	176	72.5
0.78 µM	15.4	2980	181	76.2
1.56 µM	15.1	2850	182	84
3.125 µM	–	2770	–	–
6.25 µM	–	2670	–	–
12.5 µM	–	2670	–	–
25 µM	–	2670	–	–
50 µM	–	2620	–	–

CCCCCOC(=O)COc1cc(N2C(=O)C3=C(CCCC3)C2=O)c(F)cc1Cl [Flumiclorac-pentyl]
Conditions	arterial, [3]	body length at 72 hpf, [2]	heart rate at 72 hpf, [1]	intersegmental vessel area normalized, [4]	pericardial area at 72 hpf, [5]
0.05 µM	11.7	3040	166	55.7	14500
0.098 µM	10.9	2980	159	66.5	15200
0.195 µM	10.3	2960	166	62.8	16200
0.39 µM	10.7	2950	175	66.4	15300
0.78 µM	9.99	3000	170	60.7	15200
1.56 µM	11.6	3000	178	62.7	16100
3.125 µM	11	2990	182	61.8	17000
6.25 µM	8.2	2960	185	65.1	16400
12.5 µM	8.36	3000	182	69.4	17700

C#CCN1C(=O)COc2cc(F)c(N3C(=O)C4=C(CCCC4)C3=O)cc21 [Flumioxazin]
Conditions	arterial, [3]	body length at 72 hpf, [2]	heart rate at 72 hpf, [1]	intersegmental vessel area normalized, [4]	pericardial area at 72 hpf, [5]
0.05 µM	6.76	3020	175	73.7	17000
0.098 µM	5.49	2970	169	74.8	17800
0.195 µM	5.79	3020	160	82.8	18200
0.39 µM	4.85	2920	155	68.9	19000
0.78 µM	5.18	3030	156	68.8	23000
1.56 µM	4.72	2960	164	74.8	18100
3.125 µM	4.39	3000	182	74	18700
6.25 µM	4.22	3000	169	69.6	19200
12.5 µM	4.91	2990	182	75.9	19300
25 µM	4.04	2920	166	86.4	17700
50 µM	6.16	2920	166	79	21100
